In PubChem BioAssay AID588374 (Southern Research Specialized Biocontainment Screening …, 2011) one finds CC50 and viability data, which are given here for 47 compounds.

Assay [1] deals with Vero E6 viability, CellTiter-Glo luminescence, 72 h. The assay is described as follows: Vero E6 cell cytotoxicity, SAR follow-up, cytotoxicity control for West Nile virus antiviral project, synthesized analogs, extended characterization 1 (AID 588374).
Assay in assay [2]: as above
The note with it: Vero E6 viability, CellTiter-Glo luminescence, 72 h. On the technique in general: Cellular ATP, detected with luciferase, serves as a proxy for viable cell number.

Where “and” joins values, the source holds several entries; their conditions need not be identical. Identical values can stand only once. Results filed as inconclusive are left out. Calls of active or inactive are those of the source.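 The calls were made as follows: active = viability below 70% at one or more tested concentrations in every replicate; inactive = viability above 70% at all doses, or replicates disagree.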

One may read the CC50 as the concentration at which the toxic effect on the cells reaches its halfway point. In the case of `O=C(CSc1nc2ccccc2c(=O)n1-c1cc(Cl)cc(Cl)c1)Nc1nccs1`, the CC50 in assay [1] is 18 µM.

Turning to `O=C(CCSc1nc2cccc(F)c2c(=O)n1-c1ccccc1)Nc1ccc2c(c1)CCC2`, the CC50 in assay [1] is 52.6 µM.

As a reminder, the viability is a read-out of living cells in per cent, often relative to untreated cells. For the compound `O=C(CSc1nc2ccccc2c(=O)n1-c1cc(F)c(F)c(F)c1)Nc1ccc2c(c1)CCC2`, the viability in assay [2] (at 50 µM (top of the series)) is 76.3% (inactive).

`Cn1c(NC(=O)CSc2nc3ccccc3c(=O)n2-c2ccccc2)nc2ccccc21`: in assay [1], the CC50 was 16.4 µM.

Turning to `O=C(CSc1nc2ccccc2c(=O)n1-c1cc(Cl)cc(Cl)c1)Nc1cccc2ccccc12`, the viability in assay [2] (at 100 µM (top of the series)) is 83.8% (inactive).

Regarding `Cc1cnc(NC(=O)CSc2nc3ccccc3c(=O)n2-c2ccc(Cl)c(Cl)c2)s1`, in assay [1], the CC50 is 28.8 µM.

For the compound `O=C(CCSc1nc2ccccc2c(=O)n1-c1ccc(F)c(Cl)c1)Nc1ccc2c(c1)CCC2`, the viability in assay [2] (at 100 µM (top of the series)) is 77.6% (inactive).

For `O=C(CSc1nc2ccccc2c(=O)n1-c1ccc(Cl)c(Cl)c1)NC1CCc2ccccc21` (configuration not stated), the viability in assay [2] (at 50 µM (top of the series)) is 73.8% (inactive).

Consider `O=C(COc1nc2ccccc2c(=O)n1-c1ccccc1)Nc1ccc2c(c1)CCC2`, for which the viability in assay [2] (at 100 µM (top of the series)) is 71.6% (inactive).

Consider `Cc1nc2cc(NC(=O)CSc3nc4ccccc4c(=O)n3-c3ccccc3)ccc2s1`, for which, in assay [2] (at 100 µM (top of the series)), the viability is 75.1% (inactive).

Take `O=C(CSc1nc2ccccc2c(=O)n1-c1ccccc1)Nc1nc2ccc([N+](=O)[O-])cc2s1`: in assay [1], the CC50 was 40.5 µM.

`O=C(CSc1nc2ccccc2c(=O)n1-c1ccc(Cl)c(Cl)c1)Nc1cccc2c1CCC2`: in assay [2] (at 50 µM (top of the series)), the viability was 76.2% (inactive).

With `O=C(CSc1nc2ccccc2c(=O)n1-c1ccc(Cl)c(Cl)c1)Nc1nc2cc(Cl)ccc2o1`, the CC50 in assay [1] was 18.8 µM.

For the compound `O=C(CCCSc1nc2cccc(F)c2c(=O)n1-c1ccc(F)c(Br)c1)Nc1ccc2c(c1)CCC2`, the viability in assay [2] (at 100 µM (top of the series)) was 81.7% (inactive).

Regarding `O=C(CCCCSc1nc2ccccc2c(=O)n1-c1ccc(F)c(Cl)c1)Nc1ccc2c(c1)CCC2`, the CC50 in assay [1] is 93.9 µM.

For the compound `O=C(CSc1nc2ccccc2c(=O)n1-c1ccc(F)c(F)c1)NC1CCCc2ccccc21` (configuration not stated), the viability in assay [2] (at 100 µM (top of the series)) was 76.2% (inactive).

As for `O=C(CCCCSc1nc2ccccc2c(=O)n1-c1ccccc1)Nc1ccc2c(c1)CCC2`, the CC50 in assay [1] was 50 µM.

As for `O=C(CSc1nc2ccccc2c(=O)n1-c1cc(F)c(F)c(F)c1)NC1CCc2ccccc21` (configuration not stated), in assay [1], the half-maximal cytotoxic concentration (CC50) is 36 µM.

For `O=C(CSc1nc2cccc(F)c2c(=O)n1-c1ccccc1)Nc1ccc2c(c1)OCO2`, the viability in assay [2] (at 100 µM (top of the series)) is 76.3% (inactive).

On to `O=C(CSc1nc2ccccc2c(=O)n1-c1ccccc1)Nc1ccc2ncsc2c1`, for which the viability in assay [2] (at 100 µM (top of the series)) is 88.3% (inactive).

With `O=C(CCCSc1nc2ccccc2c(=O)n1-c1ccccc1)Nc1ccc2c(c1)CCC2`, the viability in assay [2] (at 100 µM (top of the series)) was 85.5% (inactive).

With `O=C(CSc1nc2ccccc2c(=O)n1-c1ccc(Cl)c(Cl)c1)Nc1ccc2scnc2c1`, the viability in assay [2] (at 100 µM (top of the series)) was 75.5% (inactive).

Turning to `O=C(CSc1nc2ccccc2c(=O)n1-c1cc(Cl)cc(Cl)c1)Nc1cccc2c1CCC2`, in assay [1], the CC50 was 17.5 µM.

Consider `O=C(CSc1nc2ccccc2c(=O)n1-c1ccccc1)Nc1cccc2c1CCC2`, for which the CC50 in assay [1] was 37.3 µM.

Consider `O=C(CSc1nc2cccc(F)c2c(=O)n1-c1ccccc1)Nc1ccc2ncsc2c1`, for which, in assay [2] (at 50 µM (top of the series)), the viability is 86.2% (inactive).

Turning to `O=C(CCCCSc1nc2ccccc2c(=O)n1-c1cc(F)c(F)c(F)c1)Nc1ccc2c(c1)CCC2`, the viability in assay [2] (at 100 µM (top of the series)) is 70.2% (inactive).

Regarding `Cc1nc2cc(NC(=O)CSc3nc4ccccc4c(=O)n3-c3ccc(Cl)c(Cl)c3)ccc2s1`, the CC50 in assay [1] was 18 µM.

With `O=C(CSc1nc2ccccc2c(=O)n1-c1ccccc1)Nc1ccc2c(c1)OCO2`, in assay [1], the CC50 was 57.3 µM.

For `O=C(CSc1nc2ccccc2c(=O)n1-c1ccccc1)Nc1ccc2c(c1)CCC2`, the viability in assay [2] (at 100 µM (top of the series)) was 76.9% (inactive) and 77% (inactive).

For `Cn1c(NC(=O)CSc2nc3ccccc3c(=O)n2-c2ccc(Cl)c(Cl)c2)nc2ccccc21`, in assay [2] (at 50 µM (top of the series)), the viability was 74.2% (inactive).

As for `O=C(CSc1nc2ccccc2c(=O)n1-c1cc(F)c(F)c(F)c1)Nc1ccc2c(c1)OCO2`, the CC50 in assay [1] was 32.8 µM.

Consider `O=C(CSc1nc2ccccc2c(=O)n1-c1ccc(Cl)c(Cl)c1)Nc1ccc2c(c1)OCO2`, for which the viability in assay [2] (at 100 µM (top of the series)) is 74.2% (inactive).

`O=C(CSc1nc2ccccc2c(=O)n1-c1ccccc1)NC1CCc2ccccc21` (configuration not stated): the viability in assay [2] (at 100 µM (top of the series)) was 75.5% (inactive).

Consider `O=C(CCCSc1nc2cccc(F)c2c(=O)n1-c1ccc(F)c(F)c1)Nc1ccc2c(c1)CCC2`, for which the viability in assay [2] (at 100 µM (top of the series)) was 78% (inactive).

With `O=C(CSc1nc2ccccc2c(=O)n1-c1ccc(F)c(Cl)c1)Nc1cccc2ccccc12`, the viability in assay [2] (at 100 µM (top of the series)) was 75.5% (inactive).

Consider `O=C(CCCSc1nc2ccccc2c(=O)n1-c1ccc(Cl)c(Cl)c1)Nc1ccc2c(c1)CCC2`, for which the viability in assay [2] (at 100 µM (top of the series)) is 80.6% (inactive).

Consider `O=C(CSc1nc2ccccc2c(=O)n1-c1ccccc1)Nc1nccs1`, for which the viability in assay [2] (at 100 µM (top of the series)) is 96.3% (inactive).

For `O=C(CSc1nc2ccccc2c(=O)n1-c1ccc(F)c(F)c1)Nc1nccs1`, the viability in assay [2] (at 50 µM (top of the series)) was 74.1% (inactive).

For `O=C(CCCCSc1nc2cccc(F)c2c(=O)n1-c1ccc(Cl)c(F)c1)Nc1ccc2c(c1)CCC2`, the viability in assay [2] (at 100 µM (top of the series)) was 81.9% (inactive).

For the compound `O=C(CSc1nc2ccccc2c(=O)n1-c1ccccc1)NC1Cc2ccccc2C1`, the viability in assay [2] (at 100 µM (top of the series)) was 75.3% (inactive).

Take `O=C(CSc1nc2ccccc2c(=O)n1-c1ccccc1)Nc1nc2cc(Cl)ccc2o1`: the CC50 in assay [1] was 31.7 µM.

Turning to `O=C(CSc1nc2ccccc2c(=O)n1-c1ccc(Cl)c(Cl)c1)N1CCCCCC1`, in assay [2] (at 100 µM (top of the series)), the viability was 74.5% (inactive).

For `O=C(CSc1nc2ccccc2c(=O)n1-c1ccc(Cl)c(Cl)c1)Nc1ncc([N+](=O)[O-])s1`, in assay [1], the CC50 was 21.7 µM.

On to `O=C(CSc1nc2ccccc2c(=O)n1-c1ccc(Cl)c(Cl)c1)Nc1ccc2c(c1)CCC2`, for which the viability in assay [2] (at 100 µM (top of the series)) was 70.3% (inactive).

For `O=C(CSc1nc2ccccc2c(=O)n1-c1ccc(Cl)c(Cl)c1)Nc1nccs1`, the CC50 in assay [1] was 14.9 µM.

Turning to `O=C(CSc1nc2ccccc2c(=O)n1-c1ccccc1)Nc1nc(-c2ccccc2)cs1`, the viability in assay [2] (at 50 µM (top of the series)) was 77.7% (inactive).

As to `O=C(CCCSc1nc2cccc(F)c2c(=O)n1-c1ccc(Cl)c(F)c1)Nc1ccc2c(c1)CCC2`, the viability in assay [2] (at 100 µM (top of the series)) was 82.9% (inactive).
